Data on 3 compounds can be found in patent US9045481B2 (priority 2012, dated 2015).

Data set [1] deals with T1, mu opioid receptor (mOR) (Homo sapiens, UniProt P35372).
T1 construct: expressed in transfected cells; host or cells: CHO or HEK293
In words: Mu opioid receptor radioligand binding. To be noted: called weak affinity; read-out: Affinity at mu opioid receptors. Here is the method:
Established radioligand binding methods are used to evaluate the ability of the compounds to block reuptake of serotonin and dopamine in membrane preparations of synaptosomes. Equilibrium binding affinity values is determined for each compound at opioid receptors (μ and κ subtypes) and biogenic amine transporters (DAT and SERT). Where possible, binding experiments utilize membranes derived from CHO or HEK293 cells engineered to overexpress the human form of the receptor or transporter of interest. Radiolabeling of opioid receptors, and biogenic amine transporters utilizes conventional radioligands, buffers and incubation conditions according to published assays.
Test compounds, reference compounds and the radioligand (Kd value) are added to binding buffer. Assays are run with test or reference compound over a range of concentration (0.0001-10 uM) in triplicate using a 96-well sample plate containing radioligands specific for the target receptor or transporter. […] Bound radioactivity is counted in a Microbeta scintillation counter. Total bound radioactivity is estimated from triplicate wells containing no test or reference compound, together with nonspecific binding and filter blanks. The average bound radioactivity in the presence of the test compounds is expressed % inhibition=100%−% radioactivity bound. […]

A short description of data set [2]: CNS penetration across the blood brain barrier. The format is in vivo, mice. The procedure: Mice are dosed with compounds. Brain to blood ratios are determined by HPLC and LC/MS/MS analysis following oral administration of the test compounds in mice.
Data set [3] concerns the target a3b4 nAChRs (Homo sapiens, UniProt P30926+P32297). In words: Relative potency at a3b4 nAChRs (epibatidine-induced calcium response), cell line not stated. In kind it is cell-based. The procedure: Nicotinic functional assays are performed using the Molecular Devices FLIPR® Calcium 5 Assay Kit. HEK293 cells overexpressing a3β4, a4β2 or α7 (50,000 cells per well in 100 μl growth media) and are plated in clear bottom black walled 96-well microplates and incubated for 24-48 hours at 37° C., 5% CO2 until a 80-90% confluent monolayer is formed. On the day of the assay, 100 μl of Calcium 5 Dye is added to each well. Following addition of dye, cells are incubated at 25° C. for 60 minutes. Following dye loading, 50 μl of a 5× solution of reference or test compound of appropriate concentration range (0.01-30 μM), prepared in 20 mM HEPES pH 7.4 in HBSS, is added to each well. Plates are then transferred to the Molecular Devices Flexstation® which transfers 50 μL of a 5× solution (500 nM) of epibatine to each well to initiate the Ca+2 flux. Additional wells (in quadruplicate) are prepared with no added test or reference ligand for measurement of 100% flux. The RFU (relative fluorescence units) in the presence of the test or reference compounds is then expressed on the percent scale. The percent inhibition of epibatidine induced Ca^+2 flux is calculated as follows: % inhibition=100%−% RFU (relative fluorescence units). The IC50 values for reference and test compounds are obtained by fitting normalized RFU data using Graphpad Prism software.

a3b4 nAChRs, sequence (P30926 22-498): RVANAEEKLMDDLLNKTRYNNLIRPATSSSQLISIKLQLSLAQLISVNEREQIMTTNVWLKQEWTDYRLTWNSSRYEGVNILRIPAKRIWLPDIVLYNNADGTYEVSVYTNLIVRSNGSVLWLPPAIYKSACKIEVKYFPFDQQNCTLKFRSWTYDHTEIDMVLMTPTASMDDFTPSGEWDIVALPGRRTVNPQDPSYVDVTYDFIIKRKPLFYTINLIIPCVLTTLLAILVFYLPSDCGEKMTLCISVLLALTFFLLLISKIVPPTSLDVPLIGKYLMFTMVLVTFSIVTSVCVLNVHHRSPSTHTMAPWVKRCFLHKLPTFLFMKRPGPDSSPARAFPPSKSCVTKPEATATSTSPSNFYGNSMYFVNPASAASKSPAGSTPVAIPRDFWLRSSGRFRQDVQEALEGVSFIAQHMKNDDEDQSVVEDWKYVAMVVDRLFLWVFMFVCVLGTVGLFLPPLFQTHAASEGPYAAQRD
a3b4 nAChRs, sequence (P32297 32-505): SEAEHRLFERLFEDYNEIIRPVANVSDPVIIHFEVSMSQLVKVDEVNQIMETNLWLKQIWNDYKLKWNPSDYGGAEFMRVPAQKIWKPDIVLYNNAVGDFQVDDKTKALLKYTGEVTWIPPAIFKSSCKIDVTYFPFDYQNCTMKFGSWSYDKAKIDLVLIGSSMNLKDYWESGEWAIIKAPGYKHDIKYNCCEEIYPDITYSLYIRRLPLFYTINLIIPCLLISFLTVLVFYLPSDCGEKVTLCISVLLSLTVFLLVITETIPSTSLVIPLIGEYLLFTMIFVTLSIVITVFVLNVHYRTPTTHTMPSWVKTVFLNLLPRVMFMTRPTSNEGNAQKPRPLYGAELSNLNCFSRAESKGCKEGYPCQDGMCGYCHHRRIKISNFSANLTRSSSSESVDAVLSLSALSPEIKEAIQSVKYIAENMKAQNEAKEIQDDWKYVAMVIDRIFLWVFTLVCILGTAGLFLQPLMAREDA
T1 sequence (P35372 whole entry): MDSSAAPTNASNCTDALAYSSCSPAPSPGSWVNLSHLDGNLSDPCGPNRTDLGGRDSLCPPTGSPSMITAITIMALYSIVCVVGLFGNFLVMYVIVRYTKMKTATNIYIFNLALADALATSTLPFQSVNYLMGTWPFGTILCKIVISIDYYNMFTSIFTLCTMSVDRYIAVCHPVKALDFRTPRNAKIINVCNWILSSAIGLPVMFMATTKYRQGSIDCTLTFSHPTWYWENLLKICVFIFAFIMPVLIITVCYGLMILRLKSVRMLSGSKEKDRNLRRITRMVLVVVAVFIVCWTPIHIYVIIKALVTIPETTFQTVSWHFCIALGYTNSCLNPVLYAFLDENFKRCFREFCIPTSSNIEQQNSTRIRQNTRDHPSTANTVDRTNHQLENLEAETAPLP

For the compound `CC[C@H]1CC2C[C@H]3c4[nH]c5ccc(O)cc5c4CCN(C2)C13` [Noribogaine, 12-hydroxyibogamine], the Ki in data set [1] worked out at 900 nM. Moreover, the “Crossing of the BBB / concentration in brain” value in data set [2] was “cross the BBB and reach micromolar concentrations in brain”.

As to Ibogaine, the “Potency as inhibitor of the epibatidine-induced calcium response in a3b4 nAChRs, in words” value in data set [3] (compared with 18-MC and noribogaine) is “more potent inhibitors than 18-MC”.

With `COCC[C@H]1CC2CN3CCc4c([nH]c5ccccc45)[C@](C(=O)OC)(C2)[C@H]13` [Compound 18-MC, 18-methoxycoronaridine], the “Ratio from 18-MC (relative potency at a3b4 nAChRs)” value in data set [3] (ratio to 18-MC = 1, lower is more potent) was 1. Also, in data set [2], the “Crossing of the BBB / concentration in brain” value was “cross the BBB and reach micromolar concentrations in brain”.
